logD data for 17 molecules are collected here from the SangsterLogP compilation.

A word on the logD: it is the decadic logarithm of the distribution of all forms, ionised or not, between an organic phase and buffer at a given pH. Higher therefore signals higher lipophilicity.

The structures appear in SMILES notation.

A short description of this series: method code SF-AS, from DOI: 10.1080/09553007914550151, PMID: 312783. The note with it: pH 7.4.
Consider `O=[N+]([O-])c1cn(CCN2CCOCC2)cn1`, for which the pH-dependent lipophilicity (logD) was -0.38.
`CS(=O)(=O)CCn1ccnc1[N+](=O)[O-]` displayed a logD of -1.3.
The molecule `O=[N+]([O-])c1nccn1CCCOc1ccccc1` displayed a logD of 2.38.
`COC(=O)Cn1ccnc1[N+](=O)[O-]`: the logD was -0.09.
Under `COC(=O)c1cnc([N+](=O)[O-])n1C` stands 0.51; under `CC(=O)Cn1ccnc1[N+](=O)[O-]`, -0.34.
In the case of `Cn1c(C(C)(C)O)cnc1[N+](=O)[O-]`, the logD is 0.43.
With `Cn1c(CO)cnc1[N+](=O)[O-]`, the logD is -0.35.
`COCC(O)Cn1cc([N+](=O)[O-])nc1C` (configuration not stated) yielded a log distribution coefficient (logD) of -0.36.
The molecule `O=[N+]([O-])c1nccn1CCOc1ccccc1` gave a logD of 1.89.
`C=Cc1cnc([N+](=O)[O-])n1C` showed a logD of 0.64.
`O=[N+]([O-])c1nccn1CCN1CCOCC1` displayed a logD of -0.1.
With `COCCn1ccnc1[N+](=O)[O-]`, the log distribution coefficient (logD) amounted to 0.12.
`O=[N+]([O-])c1nccn1CCS(=O)(=O)c1ccccc1` registered a pH-dependent lipophilicity (logD) of 0.52.
On to `CC(C)OCC(O)Cn1ccnc1[N+](=O)[O-]` (configuration not stated), for which the logD was found to be 0.51.
Under `CCOCCn1ccnc1[N+](=O)[O-]` stands 0.53.
`COCc1ccc([N+](=O)[O-])o1`: the log distribution coefficient (logD) amounted to 0.89.
